Results as given in the kinase profiling compilation of Christmann-Franck et al. (2016).

How the values were obtained:
AAK1 (human) = AAK1 (human) (UniProt Q2M2I8); assay: KINOMEscan competition binding; details: compound 10.0 µM
ACVR2A (human) = ACVR2A (human) (UniProt P27037); assay: KINOMEscan competition binding; details: compound 10.0 µM
ACVR2B (human) = ACVR2B (human) (UniProt Q13705); assay: KINOMEscan competition binding; details: compound 10.0 µM
BMP2K (human) = BMP2K (human) (UniProt Q9NSY1); assay: KINOMEscan competition binding; details: compound 10.0 µM
CAMKK1 (human) = CAMKK1 (human) (UniProt Q8N5S9); assay: KINOMEscan competition binding; details: compound 10.0 µM
CDK7 (human) = CDK7 (human) (UniProt P50613); assay: KINOMEscan competition binding; details: compound 10.0 µM
CLK1 (human) = CLK1 (human) (UniProt P49759); assay: KINOMEscan competition binding; details: compound 10.0 µM
CLK2 (human) = CLK2 (human) (UniProt P49760); assay: KINOMEscan competition binding; details: compound 10.0 µM
CLK4 (human) = CLK4 (human) (UniProt Q9HAZ1); assay: KINOMEscan competition binding; details: compound 10.0 µM
CSNK2A2 (human) = CSNK2A2 (human) (UniProt P19784); assay: KINOMEscan competition binding; details: compound 10.0 µM
DAPK1 (human) = DAPK1 (human) (UniProt P53355); assay: KINOMEscan competition binding; details: compound 10.0 µM
DAPK2 (human) = DAPK2 (human) (UniProt Q9UIK4); assay: KINOMEscan competition binding; details: compound 10.0 µM
[1] = test system: EIF2AK4 KD2 (human), Q9P2K8 [S808G]; assay: KINOMEscan competition binding; details: compound 10.0 µM
[2] = test system: FLT3 (human), P36888 [D835H]; assay: KINOMEscan competition binding; details: compound 10.0 µM
[3] = test system: FLT3 (human), P36888 [D835Y]; assay: KINOMEscan competition binding; details: compound 10.0 µM
[4] = test system: FLT3 (human), P36888 [ITD]; assay: KINOMEscan competition binding; details: compound 10.0 µM
[5] = test system: FLT3 (human), P36888 [N841I]; assay: KINOMEscan competition binding; details: compound 10.0 µM
GAK (human) = GAK (human) (UniProt O14976); assay: KINOMEscan competition binding; details: compound 10.0 µM
GSK3A (human) = GSK3A (human) (UniProt P49840); assay: KINOMEscan competition binding; details: compound 10.0 µM
HIPK1 (human) = HIPK1 (human) (UniProt Q86Z02); assay: KINOMEscan competition binding; details: compound 10.0 µM
IRAK3 (human) = IRAK3 (human) (UniProt Q9Y616); assay: KINOMEscan competition binding; details: compound 10.0 µM
[6] = biological target: JAK1 JH2 pseudokinase (human) (UniProt P23458); assay: KINOMEscan competition binding; details: compound 10.0 µM
MAP2K4 (human) = MAP2K4 (human) (UniProt P45985); assay: KINOMEscan competition binding; details: compound 10.0 µM
MAP3K7 (human) = MAP3K7 (human) (UniProt O43318); assay: KINOMEscan competition binding; details: compound 10.0 µM
MAP4K2 (human) = MAP4K2 (human) (UniProt Q12851); assay: KINOMEscan competition binding; details: compound 10.0 µM
MINK1 (human) = MINK1 (human) (UniProt Q8N4C8); assay: KINOMEscan competition binding; details: compound 10.0 µM
MYLK (human) = MYLK (human) (UniProt Q15746); assay: KINOMEscan competition binding; details: compound 10.0 µM
MYLK4 (human) = MYLK4 (human) (UniProt Q86YV6); assay: KINOMEscan competition binding; details: compound 10.0 µM
PIM1 (human) [7] = biological target: PIM1 (human) (UniProt P11309); assay: KINOMEscan competition binding; details: compound 10.0 µM
PIM2 (human) [8] = biological target: PIM2 (human) (UniProt Q9P1W9); assay: KINOMEscan competition binding; details: compound 10.0 µM
PIM3 (human) = PIM3 (human) (UniProt Q86V86); assay: KINOMEscan competition binding; details: compound 10.0 µM
PIP4K2B (human) = PIP4K2B (human) (UniProt P78356); assay: KINOMEscan competition binding; details: compound 10.0 µM
PIP5K1A (human) = PIP5K1A (human) (UniProt Q99755); assay: KINOMEscan competition binding; details: compound 10.0 µM
PLK3 (human) = PLK3 (human) (UniProt Q9H4B4); assay: KINOMEscan competition binding; details: compound 10.0 µM
[9] = test system: RET (human), P07949 [V804M]; assay: KINOMEscan competition binding; details: compound 10.0 µM
RIOK1 (human) = RIOK1 (human) (UniProt Q9BRS2); assay: KINOMEscan competition binding; details: compound 10.0 µM
RIOK2 (human) = RIOK2 (human) (UniProt Q9BVS4); assay: KINOMEscan competition binding; details: compound 10.0 µM
RIPK2 (human) = RIPK2 (human) (UniProt O43353); assay: KINOMEscan competition binding; details: compound 10.0 µM
SRPK3 (human) = SRPK3 (human) (UniProt Q9UPE1); assay: KINOMEscan competition binding; details: compound 10.0 µM
STK17A (human) = STK17A (human) (UniProt Q9UEE5); assay: KINOMEscan competition binding; details: compound 10.0 µM
STK17B (human) = STK17B (human) (UniProt O94768); assay: KINOMEscan competition binding; details: compound 10.0 µM
TAOK1 (human) = TAOK1 (human) (UniProt Q7L7X3); assay: KINOMEscan competition binding; details: compound 10.0 µM
TGFBR2 (human) = TGFBR2 (human) (UniProt P37173); assay: KINOMEscan competition binding; details: compound 10.0 µM
TTK (human) = TTK (human) (UniProt P33981); assay: KINOMEscan competition binding; details: compound 10.0 µM
[10] = biological target: TYK2 JH2 pseudokinase (human) (UniProt P29597); assay: KINOMEscan competition binding; details: compound 10.0 µM
PIM1 (human) [11] = biological target: PIM1 (human) (UniProt P11309); assay: SelectScreen, TR FRET
PIM2 (human) [12] = biological target: PIM2 (human) (UniProt Q9P1W9); assay: SelectScreen, TR FRET

Sequence of PIM1 (human) (P11309 whole entry, looked up): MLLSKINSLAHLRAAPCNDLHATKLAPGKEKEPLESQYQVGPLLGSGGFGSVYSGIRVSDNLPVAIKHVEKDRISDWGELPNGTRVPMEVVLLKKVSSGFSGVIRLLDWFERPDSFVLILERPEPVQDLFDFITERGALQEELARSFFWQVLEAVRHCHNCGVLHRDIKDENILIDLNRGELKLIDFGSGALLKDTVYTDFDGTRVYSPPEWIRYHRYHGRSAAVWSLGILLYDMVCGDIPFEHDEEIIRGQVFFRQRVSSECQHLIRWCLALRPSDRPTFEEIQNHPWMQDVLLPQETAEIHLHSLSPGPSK
Sequence of PIM2 (human) (Q9P1W9 whole entry, looked up): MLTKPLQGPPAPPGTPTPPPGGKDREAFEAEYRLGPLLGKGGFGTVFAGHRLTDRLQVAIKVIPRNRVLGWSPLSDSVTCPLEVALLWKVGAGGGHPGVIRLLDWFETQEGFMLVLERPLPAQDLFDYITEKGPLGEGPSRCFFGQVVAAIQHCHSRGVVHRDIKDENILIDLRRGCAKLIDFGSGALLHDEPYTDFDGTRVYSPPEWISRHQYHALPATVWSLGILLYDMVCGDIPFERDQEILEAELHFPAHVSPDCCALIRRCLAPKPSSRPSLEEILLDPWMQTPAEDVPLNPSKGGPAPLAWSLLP
Sequence of MAP2K4 (human) (P45985 whole entry, looked up): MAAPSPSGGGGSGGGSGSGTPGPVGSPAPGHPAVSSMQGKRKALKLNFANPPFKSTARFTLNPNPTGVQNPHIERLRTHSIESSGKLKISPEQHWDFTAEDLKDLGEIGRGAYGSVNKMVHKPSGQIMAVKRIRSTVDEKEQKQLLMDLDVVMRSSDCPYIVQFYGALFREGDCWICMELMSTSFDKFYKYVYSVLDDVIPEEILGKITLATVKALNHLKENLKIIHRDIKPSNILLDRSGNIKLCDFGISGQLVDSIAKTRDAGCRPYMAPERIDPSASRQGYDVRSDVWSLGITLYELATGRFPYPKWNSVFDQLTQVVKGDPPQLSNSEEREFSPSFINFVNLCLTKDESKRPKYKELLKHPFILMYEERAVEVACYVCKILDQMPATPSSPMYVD
Sequence of DAPK2 (human) (Q9UIK4 whole entry, looked up): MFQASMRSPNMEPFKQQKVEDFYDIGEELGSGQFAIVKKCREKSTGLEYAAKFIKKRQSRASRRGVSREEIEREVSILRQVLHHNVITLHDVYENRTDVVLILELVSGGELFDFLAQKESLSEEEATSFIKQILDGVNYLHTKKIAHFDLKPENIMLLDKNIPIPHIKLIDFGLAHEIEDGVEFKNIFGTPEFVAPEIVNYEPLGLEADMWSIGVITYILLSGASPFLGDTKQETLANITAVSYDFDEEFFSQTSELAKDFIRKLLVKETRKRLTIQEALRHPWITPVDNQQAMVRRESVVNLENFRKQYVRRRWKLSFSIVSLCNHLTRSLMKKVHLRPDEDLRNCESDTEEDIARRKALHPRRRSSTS
Sequence of STK17B (human) (O94768 whole entry, looked up): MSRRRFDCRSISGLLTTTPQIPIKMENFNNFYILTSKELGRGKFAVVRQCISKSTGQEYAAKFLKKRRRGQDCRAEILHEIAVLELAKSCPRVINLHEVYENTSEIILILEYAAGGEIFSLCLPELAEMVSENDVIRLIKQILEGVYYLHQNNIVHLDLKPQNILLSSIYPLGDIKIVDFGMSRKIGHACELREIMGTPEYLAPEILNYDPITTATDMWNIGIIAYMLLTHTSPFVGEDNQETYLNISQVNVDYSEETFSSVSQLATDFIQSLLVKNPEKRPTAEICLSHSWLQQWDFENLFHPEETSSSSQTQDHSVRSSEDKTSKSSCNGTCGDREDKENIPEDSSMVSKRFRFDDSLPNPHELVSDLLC
Sequence of MYLK4 (human) (Q86YV6 whole entry, looked up): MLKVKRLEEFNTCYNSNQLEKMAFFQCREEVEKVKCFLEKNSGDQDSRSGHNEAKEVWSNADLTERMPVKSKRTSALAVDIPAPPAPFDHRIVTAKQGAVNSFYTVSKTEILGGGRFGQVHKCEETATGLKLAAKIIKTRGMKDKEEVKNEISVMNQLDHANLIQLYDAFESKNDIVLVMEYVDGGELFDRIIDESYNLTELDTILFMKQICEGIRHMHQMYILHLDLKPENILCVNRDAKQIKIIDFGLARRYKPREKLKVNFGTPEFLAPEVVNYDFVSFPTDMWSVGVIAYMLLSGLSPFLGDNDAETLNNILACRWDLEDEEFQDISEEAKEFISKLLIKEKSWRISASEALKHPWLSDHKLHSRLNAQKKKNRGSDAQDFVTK
Sequence of BMP2K (human) (Q9NSY1 whole entry, looked up): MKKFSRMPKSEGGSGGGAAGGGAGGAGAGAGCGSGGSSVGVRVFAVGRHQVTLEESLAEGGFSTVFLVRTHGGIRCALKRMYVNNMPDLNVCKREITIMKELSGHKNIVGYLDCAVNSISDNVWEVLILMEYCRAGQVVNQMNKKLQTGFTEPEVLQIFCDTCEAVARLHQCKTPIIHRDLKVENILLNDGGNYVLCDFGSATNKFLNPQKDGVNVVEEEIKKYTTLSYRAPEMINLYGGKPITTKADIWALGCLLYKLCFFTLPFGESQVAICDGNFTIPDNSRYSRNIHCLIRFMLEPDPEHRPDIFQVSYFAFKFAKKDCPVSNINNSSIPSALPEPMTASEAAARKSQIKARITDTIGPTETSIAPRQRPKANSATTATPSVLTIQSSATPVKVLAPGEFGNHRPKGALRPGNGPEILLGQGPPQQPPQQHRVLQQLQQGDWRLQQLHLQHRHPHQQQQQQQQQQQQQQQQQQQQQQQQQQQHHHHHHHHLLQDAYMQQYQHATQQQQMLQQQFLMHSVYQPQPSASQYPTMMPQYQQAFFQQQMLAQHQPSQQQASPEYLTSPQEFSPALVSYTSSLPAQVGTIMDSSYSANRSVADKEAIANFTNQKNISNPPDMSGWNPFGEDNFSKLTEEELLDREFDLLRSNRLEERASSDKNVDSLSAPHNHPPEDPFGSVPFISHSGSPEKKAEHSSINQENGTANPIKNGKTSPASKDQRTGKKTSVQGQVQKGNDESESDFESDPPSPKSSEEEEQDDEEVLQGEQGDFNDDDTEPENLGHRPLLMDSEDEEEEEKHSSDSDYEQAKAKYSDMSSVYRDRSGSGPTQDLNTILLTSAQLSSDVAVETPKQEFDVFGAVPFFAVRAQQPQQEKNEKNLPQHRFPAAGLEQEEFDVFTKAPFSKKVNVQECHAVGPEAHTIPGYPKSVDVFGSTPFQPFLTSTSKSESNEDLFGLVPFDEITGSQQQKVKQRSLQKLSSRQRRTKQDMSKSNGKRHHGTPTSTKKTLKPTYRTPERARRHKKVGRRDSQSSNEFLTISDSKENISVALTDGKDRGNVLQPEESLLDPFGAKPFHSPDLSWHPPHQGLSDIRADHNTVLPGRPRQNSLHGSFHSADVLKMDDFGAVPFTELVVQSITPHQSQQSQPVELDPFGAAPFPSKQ
Sequence of CAMKK1 (human) (Q8N5S9 whole entry, looked up): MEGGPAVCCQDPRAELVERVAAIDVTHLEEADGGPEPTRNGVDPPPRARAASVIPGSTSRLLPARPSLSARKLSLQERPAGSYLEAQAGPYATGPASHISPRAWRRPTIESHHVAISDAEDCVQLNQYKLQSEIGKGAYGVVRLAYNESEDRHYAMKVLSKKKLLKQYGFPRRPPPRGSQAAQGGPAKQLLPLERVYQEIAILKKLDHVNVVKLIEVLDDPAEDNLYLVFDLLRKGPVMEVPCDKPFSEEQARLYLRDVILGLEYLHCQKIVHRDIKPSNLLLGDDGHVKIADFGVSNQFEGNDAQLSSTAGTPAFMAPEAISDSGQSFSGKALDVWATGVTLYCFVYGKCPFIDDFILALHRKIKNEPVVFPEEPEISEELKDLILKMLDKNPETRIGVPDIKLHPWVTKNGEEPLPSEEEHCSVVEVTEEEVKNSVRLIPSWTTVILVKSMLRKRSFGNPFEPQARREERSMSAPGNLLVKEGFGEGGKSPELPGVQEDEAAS
Sequence of GSK3A (human) (P49840 whole entry, looked up): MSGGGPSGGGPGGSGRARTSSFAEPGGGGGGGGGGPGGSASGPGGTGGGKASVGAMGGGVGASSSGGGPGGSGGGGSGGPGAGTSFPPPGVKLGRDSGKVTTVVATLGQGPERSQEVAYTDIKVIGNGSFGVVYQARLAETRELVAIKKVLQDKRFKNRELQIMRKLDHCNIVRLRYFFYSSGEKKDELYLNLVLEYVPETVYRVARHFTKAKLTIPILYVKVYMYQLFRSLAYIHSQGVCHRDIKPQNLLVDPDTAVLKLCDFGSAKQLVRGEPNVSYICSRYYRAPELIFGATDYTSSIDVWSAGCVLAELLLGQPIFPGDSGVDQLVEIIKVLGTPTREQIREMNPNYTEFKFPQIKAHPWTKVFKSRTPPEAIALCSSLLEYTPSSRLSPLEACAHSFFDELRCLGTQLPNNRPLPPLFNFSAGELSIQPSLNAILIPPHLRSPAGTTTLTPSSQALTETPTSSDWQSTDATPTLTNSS
Sequence of CLK4 (human) (Q9HAZ1 whole entry, looked up): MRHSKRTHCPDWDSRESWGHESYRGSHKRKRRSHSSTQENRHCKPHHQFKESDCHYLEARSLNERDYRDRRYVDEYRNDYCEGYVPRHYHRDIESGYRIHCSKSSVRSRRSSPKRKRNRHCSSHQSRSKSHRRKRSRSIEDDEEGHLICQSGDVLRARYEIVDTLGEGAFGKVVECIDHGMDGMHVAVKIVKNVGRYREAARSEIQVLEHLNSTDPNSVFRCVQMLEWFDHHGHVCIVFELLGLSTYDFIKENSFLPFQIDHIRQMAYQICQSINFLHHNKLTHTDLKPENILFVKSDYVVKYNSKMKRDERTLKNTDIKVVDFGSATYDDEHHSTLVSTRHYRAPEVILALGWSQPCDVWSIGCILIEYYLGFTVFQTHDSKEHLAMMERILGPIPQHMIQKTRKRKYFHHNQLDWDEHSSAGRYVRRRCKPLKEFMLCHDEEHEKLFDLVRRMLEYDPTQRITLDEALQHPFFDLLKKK

- kinase still bound, per cent of control (AAK1 (human)): 6.3%
- kinase still bound, per cent of control (ACVR2A (human)): 34%
- kinase still bound, per cent of control (ACVR2B (human)): 21%
- kinase still bound, per cent of control (BMP2K (human)): 8%
- kinase still bound, per cent of control (CAMKK1 (human)): 27%
- kinase still bound, per cent of control (CDK7 (human)): 5.8%
- kinase still bound, per cent of control (CLK1 (human)): 15%
- kinase still bound, per cent of control (CLK2 (human)): 9.8%
- kinase still bound, per cent of control (CLK4 (human)): 20%
- kinase still bound, per cent of control (CSNK2A2 (human)): 5.5%
- kinase still bound, per cent of control (DAPK1 (human)): 22%
- kinase still bound, per cent of control (DAPK2 (human)): 30%
- kinase still bound, per cent of control [1]: 26%
- kinase still bound, per cent of control [2]: 18%
- kinase still bound, per cent of control [3]: 8.4%
- kinase still bound, per cent of control [4]: 22%
- kinase still bound, per cent of control [5]: 29%
- kinase still bound, per cent of control (GAK (human)): 2.6%
- kinase still bound, per cent of control (GSK3A (human)): 17%
- kinase still bound, per cent of control (HIPK1 (human)): 0.1%
- kinase still bound, per cent of control (IRAK3 (human)): 24%
- kinase still bound, per cent of control [6]: 20%
- kinase still bound, per cent of control (MAP2K4 (human)): 33%
- kinase still bound, per cent of control (MAP3K7 (human)): 12%
- kinase still bound, per cent of control (MAP4K2 (human)): 20%
- kinase still bound, per cent of control (MINK1 (human)): 16%
- kinase still bound, per cent of control (MYLK (human)): 24%
- kinase still bound, per cent of control (MYLK4 (human)): 13%
- kinase still bound, per cent of control (PIM1 (human) [7]): 8.3%
- kinase still bound, per cent of control (PIM2 (human) [8]): 1.4%
- kinase still bound, per cent of control (PIM3 (human)): 3.2%
- kinase still bound, per cent of control (PIP4K2B (human)): 20%
- kinase still bound, per cent of control (PIP5K1A (human)): 19%
- kinase still bound, per cent of control (PLK3 (human)): 29%
- kinase still bound, per cent of control [9]: 10%
- kinase still bound, per cent of control (RIOK1 (human)): 15%
- kinase still bound, per cent of control (RIOK2 (human)): 9.2%
- kinase still bound, per cent of control (RIPK2 (human)): 25%
- kinase still bound, per cent of control (SRPK3 (human)): 22%
- kinase still bound, per cent of control (STK17A (human)): 0.55%
- kinase still bound, per cent of control (STK17B (human)): 2.3%
- kinase still bound, per cent of control (TAOK1 (human)): 34%
- kinase still bound, per cent of control (TGFBR2 (human)): 9.2%
- kinase still bound, per cent of control (TTK (human)): 25%
- kinase still bound, per cent of control [10]: 1.1%
- IC50 (PIM1 (human) [11]): > 1110 nM
- IC50 (PIM2 (human) [12]): 504 nM
SMILES: N=C1NC(=O)/C(=C/c2ccc(-c3cnc4ccccc4c3)o2)S1
